Source: ChEMBL document CHEMBL3045592, “Studies of O,O-dimethyl α-(2,4-dichlorophenoxyacetoxy)ethylphosphonate (HW02) as a new herbicide. 1. Synthesis and herbicidal activity of HW02 and analogues as novel inhibitors of pyruvate dehydrogenase complex” (J Agric Food Chem, 2011)

Assays:
Assay type in all cases: functional
Medicago sativa [1] = assay: Post-emergence herbicidal activity against Medicago sativa (alfalfa) assessed as growth inhibition at 1500 ai g/ha after 20 days by green house test
Amaranthus retroflexus [2] = assay: Post-emergence herbicidal activity against Amaranthus retroflexus assessed as growth inhibition at 1500 ai g/ha after 20 days by green house test
Echinochloa crus-galli [3] = assay: Post-emergence herbicidal activity against Echinochloa crus-galli (barnyard grass) assessed as growth inhibition at 1500 ai g/ha after 20 days by green house test
Digitaria sanguinalis [4] = assay: Post-emergence herbicidal activity against Digitaria sanguinalis (hairy crabgrass) assessed as growth inhibition at 1500 ai g/ha after 20 days by green house test
Medicago sativa [5] = assay: Pre-emergence herbicidal activity against Medicago sativa (alfalfa) assessed as growth inhibition at 1500 ai g/ha after 20 days by green house test
Amaranthus retroflexus [6] = assay: Pre-emergence herbicidal activity against Amaranthus retroflexus assessed as growth inhibition at 1500 ai g/ha after 20 days by green house test
Echinochloa crus-galli [7] = assay: Pre-emergence herbicidal activity against Echinochloa crus-galli (barnyard grass) assessed as growth inhibition at 1500 ai g/ha after 20 days by green house test
[8] = system: Brassica rapa subsp. oleifera; assay: Post-emergence herbicidal activity against Brassica rapa subsp. oleifera Si Yue Man assessed as growth inhibition at 1500 ai g/ha after 20 days by green house test
Digitaria sanguinalis [9] = assay: Pre-emergence herbicidal activity against Digitaria sanguinalis (hairy crabgrass) assessed as growth inhibition at 1500 ai g/ha after 20 days by green house test
[10] = system: Brassica rapa subsp. oleifera; assay: Pre-emergence herbicidal activity against Brassica rapa subsp. oleifera Si Yue Man assessed as growth inhibition at 1500 ai g/ha after 20 days by green house test

| SMILES | growth inhibition (GI) (Medicago sativa [1]) | growth inhibition (GI) (Amaranthus retroflexus [2]) | growth inhibition (GI) (Echinochloa crus-galli [3]) | growth inhibition (GI) (Digitaria sanguinalis [4]) | growth inhibition (GI) (Medicago sativa [5]) | growth inhibition (GI) (Amaranthus retroflexus [6]) | growth inhibition (GI) (Echinochloa crus-galli [7]) | growth inhibition (GI) [8] | growth inhibition (GI) (Digitaria sanguinalis [9]) | growth inhibition (GI) [10] |
| --- | --- | --- | --- | --- | --- | --- | --- | --- | --- | --- |
| COP(=O)(OC)C(C)OC(=O)COc1ccc(F)c(Cl)c1 (stereo not given) | 75% | 75% | <=50% | <=50% | 75% | <=50% | 50% | 75% | 50% | <=50% |
| COP(=O)(OC)C(OC(=O)COc1ccc(C(F)(F)F)cc1)c1cccc([N+](=O)[O-])c1 (stereo not given) | <=50% | 50% | <=50% | <=50% | <=50% | <=50% | <=50% | <=50% | <=50% | <=50% |
| COP(=O)(OC)C(OC(=O)COc1cccc(Cl)c1Cl)c1cccc([N+](=O)[O-])c1 (stereo not given) | <=50% | <=50% | <=50% | <=50% | <=50% | <=50% | <=50% | <=50% | <=50% | <=50% |
| COP(=O)(OC)C(OC(=O)COc1ccc(F)c(Cl)c1)c1cccc([N+](=O)[O-])c1 (stereo not given) | 50% | 75% | 50% | 75% | 50% | 50% | 50% | 50% | <=50% | <=50% |
| COP(=O)(OC)C(C)OC(=O)COc1ccccc1F (stereo not given) | <=50% | <=50% | <=50% | <=50% | <=50% | <=50% | <=50% | <=50% | <=50% | <=50% |
| COP(=O)(OC)C(OC(=O)COc1ccccc1F)c1cccc([N+](=O)[O-])c1 (stereo not given) | <=50% | <=50% | 90% | <=50% | <=50% | <=50% | <=50% | <=50% | <=50% | <=50% |
| COP(=O)(OC)C(OC(=O)COc1cccc(C(F)(F)F)c1)c1cccc([N+](=O)[O-])c1 (stereo not given) | <=50% | <=50% | 50% | <=50% | 50% | 50% | <=50% | 50% | <=50% | 50% |
| COP(=O)(OC)C(C)OC(=O)COc1cccc(C)c1C (stereo not given) | 50% | 50% | 50% | <=50% | 75% | 75% | 75% | 75% | <=50% | 90% |
| COP(=O)(OC)C(OC(=O)COc1cc(C)ccc1Cl)c1cccc([N+](=O)[O-])c1 (stereo not given) | <=50% | <=50% | <=50% | <=50% | <=50% | <=50% | <=50% | <=50% | <=50% | <=50% |
| COP(=O)(OC)C(C)OC(=O)COc1ccc(F)cc1 (stereo not given) | 50% | 75% | <=50% | <=50% | 75% | 50% | <=50% | 50% | 90% | 75% |
| COP(=O)(OC)C(OC(=O)COc1ccc(F)cc1)c1cccc([N+](=O)[O-])c1 (stereo not given) | 50% | 75% | 50% | 50% | 75% | 75% | 50% | 50% | 90% | <=50% |
| COP(=O)(OC)C(C)OC(=O)COc1ccc(C)cc1 (stereo not given) | 50% | 50% | 50% | <=50% | 75% | 75% | 50% | 50% | <=50% | 75% |
| COP(=O)(OC)C(C)OC(=O)COc1cc(F)cc(F)c1 (stereo not given) | <=50% | <=50% | <=50% | <=50% | <=50% | <=50% | <=50% | <=50% | <=50% | <=50% |
| COP(=O)(OC)C(C)OC(=O)COc1ccc(F)cc1Cl (stereo not given) | 90% | 90% | 75% | 75% | 90% | 90% | 90% | 90% | 90% | 90% |
| COP(=O)(COC(=O)COc1ccc(C(F)(F)F)cc1)OC | <=50% | 75% | <=50% | <=50% | <=50% | <=50% | <=50% | <=50% | <=50% | <=50% |
| COP(=O)(OC)C(OC(=O)COc1ccc(F)cc1F)c1ccccc1 (stereo not given) | <=50% | 90% | <=50% | <=50% | 50% | 50% | 75% | <=50% | <=50% | <=50% |
